Data set [1] deals with hEPO mRNA. Kind of data set: hEPO expression after subcutaneous administration to mice. The note with it: 6 hr. time point, relative to MC3. Format: in vivo, CD-1 mice. On the procedure:
The numbers 1-11 in this figure correspond to MC3, PBS, and Compounds 18, 25, 48, 49, 111, 60, 168, 207, and 233, respectively.
FIG. 27 is a graph showing the hEPO mRNA expression in CD1-mice measured 3 h (left block), 6 h (middle block) and 24 h (right block) after subcutaneous administration of various nanoparticle compositions at 0.5 mpk. Numbers 1-9 refer to compositions containing an mRNA expressing hEPO and the following: 1: PBS, 2: Compound 18, 3: Compound 30; 4: Compound 96; 5: Compound 151; 6: Compound 98; 7: Compound 163; 8: Compound 164; 9: Compound 165.

In the next data set the test system is mouse liver tissue. Kind of data set: Disappearance of parent lipid and primary metabolite from mouse liver after 0.25 mg/kg mRNA on days 1, 8 and 15. Format: in vivo. On the procedure:
In vitro metabolite identification studies using compound 18 were also performed. […] The disappearance of parent compound 18 and the primary metabolite, compound 166, from mouse liver tissue was measured after dosing 0.25 mg/kg mRNA on days 1, 8, and 15.

The next data set has as its system cynomolgus monkeys. The data set can be described thus: Human IgG (anti-influenza A antibody mRNA) expression in non-human primates. In kind it is in vivo, cynomolgus monkey. The note with it: NHP, single dose. Here is the method: NHP studies: Nonhuman primate studies were conducted using naïve cynomolgus monkeys (cynos), 2-4 years old, weighing 2-6 kg. No treatment randomization or blinding methods were used for any of the animal studies. Sample sizes were determined by the resource equation method. For injection, mRNA-LNPs in phosphate buffered saline (PBS) were administered by 60-minute intravenous infusion using a temporary indwelling catheter inserted in a peripheral vein.
Human IgG analysis for NHP samples: A 10.0-μL matrix aliquot is transferred to a low protein binding 96-well plate. A 25.0-μL aliquot of the working internal standard solution is added, and the sample aliquot is diluted with loading buffer. […] The final extract is analyzed via HPLC with MS/MS detection using positive ion electrospray. A linear, 1/concentration^2 weighted, least-squares regression algorithm is used to quantitate unknown samples.
NHP more closely approximates clinical responses for LNP-based systems than rodent (DeRosa, F., Guild, B., Karve, S., Smith, L., Love, K., Dorkin, J R., et. al. Therapeutic efficacy in a hemophilia B model using a biosynthetic mRNA liver depot system. Gene Ther. 2016, 23, 699-707, the contents of which are incorporated herein by reference in their entireties). […] A separate study evaluated the lipid tissue accumulation in NHP after a single dose.

The subject of a further data set is Sprague Dawley rat. Kind of data set: One-month toxicological evaluation with weekly dosing in rat. Format: in vivo. On the procedure: Serum ALT and AST levels: Samples were analyzed using a Modular Analytics analyzer.
Next, tolerability and safety of the compound 18-based LNPs in vivo was tested. A full toxicological evaluation of compound 18-based LNPs in both Sprague Dawley rat and cynomolgus monkey was performed using a standard one-month study with weekly dosing at three dose levels in each species. Rats were dosed at 0.05, 0.5, and 2 mg/kg and a non-human primates was dosed at 0.1, 0.3, and 1 mg/kg. LNP-related toxicities associated with MC3-based LNP systems are generally associated with immunological (cytokine and complement activation) and hepatic injury. […] FIGS. 32 and 33 highlight the day 30 levels of alanine transferase (ALT, FIG. 32A) and aspartate aminotransferase (AST, FIG. 32B), two indicators of liver damage.

The test system of the next data set is ApoE knockout mice. Kind of data set: Expression study in ApoE knockout mice. Format: in vivo. Conditions: compound 18 based LNPs.
Data set [2] can be described thus: Lipid clearance: mouse liver tissue level and % dose remaining in liver after intravenous administration. Format: in vivo.
The subject of the next data set is sC5b-9. Kind of data set: Complement activation: sC5b-9 levels in human cells contacted in vitro with nanoparticle compositions. In kind it is cell-based. On the procedure: Complement activation assists in the clearance of pathogens from an organism. As it is undesirable that a subject's body recognize a nanoparticle composition as a foreign invader, low complement system activation upon administration of such a composition is preferred. The complex sC5b-9 is a marker for the activation of the complement system. Thus, human cells were contacted in vitro with nanoparticle compositions according to Table 1A and were evaluated for sC5b-9 levels.

In another data set the test system is IP-10. Kind of data set: Cytokine induction (IP-10) in rats after intravenous administration. In kind it is in vivo, rat. Conditions: for IP-10 induction: rat, 48 hours. On the procedure:
The expression of hEPO and cytokine induction in rats intravenously administered a nanoparticle composition at a dose of 2.0 mpk was measured at 6 h.
Table 19A summarizes the hEPO expression, IP-10 induction, liver and spleen levels, and alanine aminotransferase (ALT) and aspartate aminotransferase (AST) measured upon intravenous administration of formulations including Compounds 48, 49, and 50 to rat at 0.2 and 2 mpk and hEPO mRNA. hEPO concentrations were measured 6 hours after administration, while cytokine induction and liver and spleen levels were measured 48 hours after administration. hEPO and IP-10 concentrations are presented in pg/ml, while liver levels are provided in ng/g. ALT and AST levels are presented in international units.

Data set [3] concerns hEPO mRNA. The data set can be described thus: hEPO expression and pharmacokinetic parameters after intravenous infusion to non-human primates. The note with it: 0.01 mpk, iv infusion 60 minutes, cynomolgus monkeys. In kind it is in vivo.
Data set [4] in a line: MC3 single cell necrosis in rat liver and liver enzymes (ALT, AST). Format: in vivo. The note with it: rats, 0.3 mg/kg MC3-based LNP. Here is the method: FIG. 37 is a series of graphs illustrating MC3 single cell necrosis in rat liver and liver enzyme. The top row is a pair of images of livers of rats administered with 0.3 mg/kg of a […] (LNP) not containing an mRNA (right) and PBS (phosphate buffered saline) as a control (left). The bottom row is a pair of graphs showing expression of ALT (left) and AST(right) in the liver following administration of a 0.3 mg/kg of a MC3-based LNP containing an mRNA.

`CCCCCCCCCOC(=O)CCCCCCCN(CCO)CCCCCCCC(=O)OC(CCCCCCCC)CCCCCCCC` [Compound 18, Heptadecan-9-yl 8-((2-hydroxyethyl)(8-(nonyloxy)-8-oxooctyl)amino)octanoate]: in the data set with hEPO mRNA [1], the “Novel lipid/MC3 expression ratio, s.c. hEPO 0.5 mpk” value was 4.26. For the same compound, the “clearance from mouse liver tissue” value in the data set on mouse liver tissue is “rapid clearance”. In the data set with cynomolgus monkeys, the “increase in expression of anti-human IgG influenza A antibody compared to an MC3 LNP” value came to 5 fold. Moreover, the “ALT and AST levels, day 30, relative to PBS control” value with Sprague Dawley rat (any dose level) is “minimal elevation”. In addition, the toxicological findings result in the data set with Sprague Dawley rat (weekly dosing one month, 0.05, 0.5 and 2 mg/kg) is reported as “no adverse findings”. Also, in the data set on ApoE knockout mice, the “expression in ApoE knockout mice” value is “almost complete loss in expression”.

Turning to `CCCCCC=CCC=CCCCCCCCCC(CCCCCCCCC=CCC=CCCCCC)OC(=O)CCCN(C)C` (stereo not drawn) [MC3, heptatriaconta-6,9,28,31-tetraen-19-yl 4-(dimethylamino)butanoate, reference compound], the “% Dose Remaining in Liver 6 h” value came out at 80% in [2] (first column headed 6 h (Table 3D)) and 54% in [2] (second column headed 6 h (Table 3D)). Further, the “% Remaining dose at 6 h” value in data set [2] (mouse liver, 6 h) is given as greater than 98%. Moreover, the “% Remaining dose at 24 h” value in [2] (mouse liver, 24 h) is on record as 79.7%. Also, the concentration at 6 h in [2] (mouse, liver, 0.5 mg/kg, 6 h) turned out to be 85400 ng/g. For the same compound, the concentration at 24 h in [2] (mouse, liver, 0.5 mg/kg, 24 h) was determined as 67400 ng/g. The “Fold increase in sC5b-9 levels versus saline” value in the data set on sC5b-9 came to 0.73. The IP-10 induction in the data set with IP-10 (intravenous 0.2 mpk) was determined as 2 pg/mL; in the data set on IP-10 (intravenous 2 mpk) it was 596 pg/mL. In addition, the IP-10 with IP-10 (rats, intravenous 2.0 mpk, hEPO nanoparticle compositions, 6 hours) amounted to 688.3 pg/mL. The “AUC Lipid/MC3 Ratio” value in the data set on hEPO mRNA [3] is 1.0. Moreover, the “ALT, AST and liver pathology” value in data set [4] was “ALT and AST were elevated and pathology showed evidence of necrosis”.

The values are drawn from patent US10857105B2, “Compounds and compositions for intracellular delivery of therapeutic agents” (ModernaTX, Inc., priority 2017, dated 2020).
